Reference: patent US9944645B2, “Imidazotriazines and imidazopyrimidines as kinase inhibitors” (Incyte Holdings Corporation, priority 2006, dated 2018)

target: c-Met kinase (h-Met; histidine-tagged c-Met catalytic domain fusion protein) (Homo sapiens (Human), UniProt P08581); assay: In Vitro c-Met Kinase Enzyme Assays; type: biochemical; conditions: phosphorylation of poly Glu-Tyr, 5 μM ATP, 25 minutes at 30° C.
Method: Compounds were screened in vitro for their ability to inhibit c-Met kinase activity. […] Briefly, histidine-tagged c-Met catalytic domain fusion protein (Invitrogen, #PV3143) was used for the assay. […] The reaction lasted for 25 minutes at 30° C. After the reaction was completed, the contents of the plates was discarded. Plates were then washed with TBS-T (250 μL/well, 5×) and then blocked with TBS-T containing 1% BSA for 2 hours. The contents of the plates was discarded, and 100 μL (per well) of peroxidase-labeled anti-phospho-tyrosine antibody (Sigma, #A5964) diluted (1:60,000) in 1% BSA containing TBS-T were then added and incubated for 1 hour. Plates were washed with TBS-T ([…], 5×) and followed by the color reaction using 100 μL (1:1 mixture) of H2O2 and tetramethylbenzidine (R&D Systems, #DY999). The reaction was stopped in minutes with 100 μL of 2 N H2SO4. The optical density was measured immediately using a microplate reader at 450 nm with wavelength correction at 540 nm. IC50 values were calculated with the GraphPad Prism software. The linear range (i.e., the time period over which the rate remained equivalent to the initial rate) was determined for the kinase and IC50 determinations were performed within this range.

c-Met kinase (h-Met; histidine-tagged c-Met catalytic domain fusion protein), sequence (P08581 1078-1345): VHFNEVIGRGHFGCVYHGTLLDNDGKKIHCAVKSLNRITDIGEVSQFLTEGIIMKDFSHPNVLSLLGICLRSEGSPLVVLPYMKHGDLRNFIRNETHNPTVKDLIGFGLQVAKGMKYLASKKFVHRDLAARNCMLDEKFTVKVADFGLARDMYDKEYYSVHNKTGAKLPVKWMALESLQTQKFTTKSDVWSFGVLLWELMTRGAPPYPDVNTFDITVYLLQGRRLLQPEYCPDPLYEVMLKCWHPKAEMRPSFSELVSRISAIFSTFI

SMILES | IC50
CC(C)(C)[C@H](NC(=O)c1ccc(-c2cnc3ncc(C4(c5ccc6ncccc6c5)CC4)n3c2)cn1)C(=O)NC1CC1 [Example 60, N-(1S)-1-[(Cyclopropylamino)carbonyl]-2,2-dimethylpropyl-5-[3-(1-quinolin-6-ylcyclopropyl)imidazo[1,2-a]pyrimidin-6-yl]pyridine-2-carboxamide] | < 500 nM
C[C@H](NC(=O)c1ccc(-c2cnc3ncc(C4(c5ccc6ncccc6c5)CC4)n3c2)cn1)C(=O)N(C)C [Example 61, N-[(1S)-2-(Dimethylamino)-1-methyl-2-oxoethyl]-5-[3-(1-quinolin-6-ylcyclopropyl)imidazo[1,2-a]pyrimidin-6-yl]pyridine-2-carboxamide] | < 500 nM
C[C@@H](NC(=O)c1ccc(-c2cnc3ncc(C4(c5ccc6ncccc6c5)CC4)n3c2)cn1)C(=O)N(C)C [Example 62, N-[(1R)-2-(Dimethylamino)-1-methyl-2-oxoethyl]-5-[3-(1-quinolin-6-ylcyclopropyl)imidazo[1,2-a]pyrimidin-6-yl]pyridine-2-carboxamide] | < 500 nM
O=C(COc1ccc(-c2cnc3ncc(C4(c5ccc6ncccc6c5)CC4)n3c2)cc1)N1CCCC1 [Example 63, 6-(1-{6-[4-(2-Oxo-2-pyrrolidin-1-ylethoxy)phenyl]imidazo[1,2-a]pyrimidin-3-yl}cyclopropyl)quinoline] | < 500 nM
N#CC1(c2ccc(-c3cnc4ncc(C5(c6ccc7ncccc7c6)CC5)n4c3)cc2)CC1 [Example 64, 1-{4-[3-(1-Quinolin-6-ylcyclopropyl)imidazo[1,2-a]pyrimidin-6-yl]phenyl}cyclopropanecarbonitrile] | < 500 nM
CN(C)S(=O)(=O)c1ccc(-c2cnc3ncc(C4(c5ccc6ncccc6c5)CC4)n3c2)cc1 [Example 65, N,N-Dimethyl-4-[3-(1-quinolin-6-ylcyclopropyl)imidazo[1,2-a]pyrimidin-6-yl]benzenesulfonamide] | < 500 nM
COC(=O)NCc1ccc(-c2cnc3ncc(C4(c5ccc6ncccc6c5)CC4)n3c2)cc1F [Example 66, Methyl 2-fluoro-4-[3-(1-quinolin-6-ylcyclopropyl)imidazo[1,2-a]pyrimidin-6-yl]benzylcarbamate] | < 500 nM
CN(C)C(=O)NCc1ccc(-c2cnc3ncc(C4(c5ccc6ncccc6c5)CC4)n3c2)cc1F [Example 67, N′-2-Fluoro-4-[3-(1-quinolin-6-ylcyclopropyl)imidazo[1,2-a]pyrimidin-6-yl]benzyl-N,N-dimethylurea] | < 500 nM
O[C@@H]1CCN(Cc2ccc(-c3cnc4ncc(C5(c6ccc7ncccc7c6)CC5)n4c3)cc2F)C1 [Example 68, (3R)-1-{2-Fluoro-4-[3-(1-quinolin-6-ylcyclopropyl)imidazo[1,2-a]pyrimidin-6-yl]benzyl}pyrrolidin-3-ol] | < 500 nM
Fc1cc(-c2cnc3ncc(C4(c5ccc6ncccc6c5)CC4)n3c2)ccc1Cn1cccn1 [Example 69, 6-(1-{6-[3-Fluoro-4-(1H-pyrazol-1-ylmethyl)phenyl]imidazo[1,2-a]pyrimidin-3-yl}cyclopropyl)quinoline] | < 500 nM
O=C1OCCN1Cc1ccc(-c2cnc3ncc(C4(c5ccc6ncccc6c5)CC4)n3c2)cc1F [Example 70, 3-{2-Fluoro-4-[3-(1-quinolin-6-ylcyclopropyl)imidazo[1,2-a]pyrimidin-6-yl]benzyl}-1,3-oxazolidin-2-one] | < 500 nM
CNC(=O)c1ccc(-c2cnc3ncc(Cc4ccc5nccnc5c4)n3n2)cc1F [Example 71, 2-Fluoro-N-methyl-4-[7-(quinoxalin-6-ylmethyl)imidazo[1,2-b][1,2,4]triazin-2-yl]benzamide] | < 500 nM
Cc1nc(-c2cnc3ncc(C4(c5ccc6ncccc6c5)CC4)n3c2)cs1 [Example 73, 6-{1-[6-(2-Methyl-1,3-thiazol-4-yl)imidazo[1,2-a]pyrimidin-3-yl]cyclopropyl}quinoline] | < 500 nM
c1cnc2ccc(C3(c4cnc5ncc(-c6cscn6)cn45)CC3)cc2c1 [Example 74, 6-{1-[6-(1,3-Thiazol-4-yl)imidazo[1,2-a]pyrimidin-3-yl]cyclopropyl}quinoline] | < 500 nM
CNC(=O)c1ccc(-c2cnc3ncc(C4(c5ccc6ncccc6c5)CC4)n3c2)c(F)c1 [Example 75, 3-Fluoro-N-methyl-4-[3-(1-quinolin-6-ylcyclopropyl)imidazo[1,2-a]pyrimidin-6-yl]benzamide] | < 500 nM
O=C(c1ccc(-c2cnc3ncc(C4(c5ccc6ncccc6c5)CC4)n3c2)c(F)c1)N1CC[C@H](O)C1 [Example 76, (3S)-1-{3-Fluoro-4-[3-(1-quinolin-6-ylcyclopropyl)imidazo[1,2-a]pyrimidin-6-yl]benzoyl}pyrrolidin-3-ol] | < 500 nM

SMILES | IC50
CNC(=O)c1cc(F)c(-c2cnc3ncc(C4(c5ccc6ncccc6c5)CC4)n3c2)cc1F [Example 77, 2,5-Difluoro-N-methyl-4-[3-(1-quinolin-6-ylcyclopropyl)imidazo[1,2-a]pyrimidin-6-yl]benzamide] | < 500 nM
NC(=O)c1cc(F)c(-c2cnc3ncc(C4(c5ccc6ncccc6c5)CC4)n3c2)cc1F [Example 78, 2,5-Difluoro-4-[3-(1-quinolin-6-ylcyclopropyl)imidazo[1,2-a]pyrimidin-6-yl]benzamide] | < 500 nM
O=C(NC1CC1)c1cc(F)c(-c2cnc3ncc(C4(c5ccc6ncccc6c5)CC4)n3c2)cc1F [Example 79, N-Cyclopropyl-2,5-difluoro-4-[3-(1-quinolin-6-ylcyclopropyl)imidazo[1,2-a]pyrimidin-6-yl]benzamide] | < 500 nM
O=C(N[C@H]1CC[C@H](O)CC1)c1cc(F)c(-c2cnc3ncc(C4(c5ccc6ncccc6c5)CC4)n3c2)cc1F [Example 80, 2,5-Difluoro-N-(trans-4-hydroxycyclohexyl)-4-[3-(1-quinolin-6-ylcyclopropyl)imidazo[1,2-a]pyrimidin-6-yl]benzamide] | < 500 nM
O=C1CCCN1c1ccc(-c2cnc3ncc(C4(c5ccc6ncccc6c5)CC4)n3c2)cc1F [Example 81, 1-{2-Fluoro-4-[3-(1-quinolin-6-ylcyclopropyl)imidazo[1,2-a]pyrimidin-6-yl]phenyl}pyrrolidin-2-one] | < 2000 nM
O=C1OCCN1c1ccc(-c2cnc3ncc(C4(c5ccc6ncccc6c5)CC4)n3c2)cc1F [Example 82, 3-{2-Fluoro-4-[3-(1-quinolin-6-ylcyclopropyl)imidazo[1,2-a]pyrimidin-6-yl]phenyl}-1,3-oxazolidin-2-one] | < 500 nM
CCOC(=O)N1CCC(n2cc(-c3cnc4ncc(C5(c6ccc7ncccc7c6)CC5)n4c3)cn2)CC1 [Example 83, Ethyl 4-{4-[3-(1-quinolin-6-ylcyclopropyl)imidazo[1,2-a]pyrimidin-6-yl]-1H-pyrazol-1-yl}piperidine-1-carboxylate] | < 500 nM
CN(C)C(=O)Cn1cc(-c2ccc(-c3cnc4ncc(C5(c6ccc7ncccc7c6)CC5)n4c3)cc2F)cn1 [Example 84, 2-(4-{2-Fluoro-4-[3-(1-quinolin-6-ylcyclopropyl)imidazo[1,2-a]pyrimidin-6-yl]phenyl}-1H-pyrazol-1-yl)-N,N-dimethylacetamide] | < 500 nM
CNC(=O)c1ccc(-c2ccc(-c3cnc4ncc(C5(c6ccc7ncccc7c6)CC5)n4c3)cc2F)cn1 [Example 85, 5-{2-Fluoro-4-[3-(1-quinolin-6-ylcyclopropyl)imidazo[1,2-a]pyrimidin-6-yl]phenyl}-N-methylpyridine-2-carboxamide] | < 500 nM
CN(C)C(=O)c1ccc(-c2ccc(-c3cnc4ncc(C5(c6ccc7ncccc7c6)CC5)n4c3)cc2F)cn1 [Example 86, 5-{2-Fluoro-4-[3-(1-quinolin-6-ylcyclopropyl)imidazo[1,2-a]pyrimidin-6-yl]phenyl}-N,N-dimethylpyridine-2-carboxamide] | < 500 nM
Cn1cc(-c2ccc(-c3cnc4ncc(C5(c6ccc7ncccc7c6)CC5)n4c3)cc2F)cn1 [Example 87, 6-(1-{6-[3-Fluoro-4-(1-methyl-1H-pyrazol-4-yl)phenyl]imidazo[1,2-a]pyrimidin-3-yl}cyclopropyl)quinoline] | < 500 nM
c1cnc2ccc(C3(c4cnc5ncc(-c6cnn(C7CCOC7)c6)cn45)CC3)cc2c1 (centres unmarked) [Example 88, 6-(1-{6-[1-(Tetrahydrofuran-3-yl)-1H-pyrazol-4-yl]imidazo[1,2-a]pyrimidin-3-yl}cyclopropyl)quinoline] | < 500 nM
c1ccc(CN2CCC(n3cc(-c4cnc5ncc(C6(c7ccc8ncccc8c7)CC6)n5c4)cn3)C2)cc1 (centres unmarked) [Example 89, 6-(1-{6-[1-(1-Benzylpyrrolidin-3-yl)-1H-pyrazol-4-yl]imidazo[1,2-a]pyrimidin-3-yl}cyclopropyl)quinoline] | < 3000 nM
Cn1cc(-c2cnc3ncc(C4(c5ccc6ncccc6c5)CC4)n3c2)cn1 [Example 90, 6-{1-[6-(1-Methyl-1H-pyrazol-4-yl)imidazo[1,2-a]pyrimidin-3-yl]cyclopropyl}quinoline] | < 500 nM
CN(C)C(=O)N1CCC(n2cc(-c3cnc4ncc(C5(c6ccc7ncccc7c6)CC5)n4c3)cn2)CC1 [Example 91, N,N-Dimethyl-4-{4-[3-(1-quinolin-6-ylcyclopropyl)imidazo[1,2-a]pyrimidin-6-yl]-1H-pyrazol-1-yl}piperidine-1-carboxamide] | < 500 nM
OC1CCC(n2cc(-c3cnc4ncc(C5(c6ccc7ncccc7c6)CC5)n4c3)cn2)CC1 (centres unmarked) [Example 92, 4-{4-[3-(1-Quinolin-6-ylcyclopropyl)imidazo[1,2-a]pyrimidin-6-yl]-1H-pyrazol-1-yl}cyclohexanol] | < 500 nM
